Results: patent publication US9585962B1, “Treatment for actinic keratoses” (priority 2013, dated 2017)

Test system: actinic keratoses
Details: 0.1% in a dermatologically acceptable cream base

COc1cc2c(c(OC)c1OC)-c1ccc(OC)c(=O)cc1[C@@H](NC(C)=O)CC2 [colchicine]
actinic keratoses cleared: 35-40% | skin irritation: significant level of skin irritation
